Assay results taken from patent US11820835B2, “Cyclic tetrapeptide analogs” (University of Kansas, priority 2018, dated 2023).
Like-named read-outs stand apart in the source and are kept apart here. Non-standard residues stand in square brackets, D forms with d. Residues, ends and D or L forms follow the SMILES beside them. 2Pal = N[C@@H](Cc1ccccn1)C(=O)O; 3Pal = N[C@@H](Cc1cccnc1)C(=O)O; 4Pal = N[C@@H](Cc1ccncc1)C(=O)O

Experiments:
[1] = target: T1, kappa opioid receptor (KOR) (Mus musculus, UniProt P33534); assay: Mouse 55° C. warm-water tail withdrawal assay, opioid antagonist activity (antagonism of KOR agonist U50,488); type: in vivo; conditions: for selectivity of opioid antagonism (KOR vs. MOR and DOR agonists): U50,488, morphine, SNC-80; for duration of KOR antagonism of centrally administered U50,488: 30 mg/kg p.o.; for antagonism of centrally (i.c.v.) administered KOR agonist U50,488: peptide given orally
T1 construct: from tissue; host or cells: living mouse (in vivo; CNS)
Protocol: (§1) The analogs were evaluated in vivo in an analgesic assay (mouse 55° C. warm-water tail withdrawal assay) for opioid agonist and antagonist activity. Representative analogs were evaluated in a conditioned place preference (CPP) assay for their ability to prevent stress-induced relapse to cocaine-seeking behavior. Further, representative analogs were evaluated for opioid receptor affinity in radioligand binding assays (Table 2).

[2] = test system: mice; assay: Mouse 55° C. warm-water tail withdrawal assay, antinociception (opioid agonist activity); type: in vivo
Protocol: as §1

[3] = target: MOR (mu opioid receptor) (Homo sapiens, UniProt P35372); assay: Radioligand binding assay, MOR affinity; conditions: read-out: MOR Ki (nM ± SEM)
Protocol: as §1

[4] = target: KOR (kappa opioid receptor) (Homo sapiens, UniProt P41145); assay: Radioligand binding assay, KOR affinity; conditions: for Selectivity (KOR/MOR): ratio of KOR and MOR Ki; for Ki: read-out: KOR Ki (nM ± SEM)
Protocol: as §1

[5] = test system: kappa opioid receptor (KOR); conditions: cited from earlier work
[6] = test system: mice; conditions: p.o., CPP assay; Eans et al., 2013; cited from earlier work
[7] = target: T1, kappa opioid receptor (KOR); conditions: p.o.; Eans et al., 2013; cited from earlier work
[8] = Respiration following oral administration; type: in vivo; conditions: 10 or 30 mg/kg p.o.
Source text: (§2) FIGS. 6A-B provides the results of studies on locomotion and respiration following oral administration of JVA-3620.
(§3) FIG. 7A-B provides the results of studies on locomotion and respiration following oral administration of JVA-3628.

[9] = Locomotion following oral administration; type: in vivo; conditions: 10 or 30 mg/kg p.o.
Source text: as §2, §3

[10] = test system: mice; assay: Conditioned place preference (CPP) assay, stress-induced relapse to cocaine-seeking behavior; type: in vivo, mouse; conditions: p.o.
Protocol: as §1

T1 sequence (P33534 whole entry): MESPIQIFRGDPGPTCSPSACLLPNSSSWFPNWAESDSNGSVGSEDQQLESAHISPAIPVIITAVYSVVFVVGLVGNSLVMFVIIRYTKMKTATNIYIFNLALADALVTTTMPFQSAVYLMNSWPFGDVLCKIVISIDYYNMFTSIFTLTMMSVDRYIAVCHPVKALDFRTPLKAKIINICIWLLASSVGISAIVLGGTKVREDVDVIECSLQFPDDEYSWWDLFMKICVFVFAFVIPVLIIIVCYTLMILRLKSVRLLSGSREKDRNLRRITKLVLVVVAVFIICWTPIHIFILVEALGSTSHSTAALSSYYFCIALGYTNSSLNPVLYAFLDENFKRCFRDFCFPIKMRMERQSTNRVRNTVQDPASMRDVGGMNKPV
KOR (kappa opioid receptor), sequence (P41145 whole entry): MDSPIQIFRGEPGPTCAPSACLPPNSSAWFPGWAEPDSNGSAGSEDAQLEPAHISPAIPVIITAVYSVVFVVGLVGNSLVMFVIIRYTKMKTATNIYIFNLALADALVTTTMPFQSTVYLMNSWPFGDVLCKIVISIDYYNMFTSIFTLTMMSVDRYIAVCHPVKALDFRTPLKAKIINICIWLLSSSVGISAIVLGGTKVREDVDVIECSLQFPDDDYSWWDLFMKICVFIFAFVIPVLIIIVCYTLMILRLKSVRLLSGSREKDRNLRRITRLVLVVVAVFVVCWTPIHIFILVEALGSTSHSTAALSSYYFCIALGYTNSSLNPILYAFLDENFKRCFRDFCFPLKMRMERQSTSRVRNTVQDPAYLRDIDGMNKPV
MOR (mu opioid receptor), sequence (P35372 whole entry): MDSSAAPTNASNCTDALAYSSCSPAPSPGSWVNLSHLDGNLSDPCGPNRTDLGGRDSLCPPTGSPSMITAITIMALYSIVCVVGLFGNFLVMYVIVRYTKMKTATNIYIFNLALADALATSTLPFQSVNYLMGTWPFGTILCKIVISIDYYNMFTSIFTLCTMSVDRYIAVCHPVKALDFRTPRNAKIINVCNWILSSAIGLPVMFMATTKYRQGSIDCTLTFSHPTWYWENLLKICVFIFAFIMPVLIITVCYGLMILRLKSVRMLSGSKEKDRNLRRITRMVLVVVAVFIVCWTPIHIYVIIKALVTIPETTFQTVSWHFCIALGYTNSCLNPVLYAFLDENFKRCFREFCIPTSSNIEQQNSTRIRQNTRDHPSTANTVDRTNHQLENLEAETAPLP

Compound	KOR antagonism ([1]; i.c.v. administration)	antinociception (agonist activity) ([2]; i.c.v. administration)	Ki [3]	Selectivity (KOR/MOR) [4]	Ki [4]	also measured
[D-Bip^4]CJ-15,208 [JVA-3667]	weak KOR antagonist	agonist				selectivity of opioid antagonism (KOR vs. MOR and DOR agonists) [1]: selective for KOR; KOR antagonism ([1]; oral (p.o.) administration): only KOR antagonism
O=C1N[C@H](Cc2c[nH]c3ccccc23)C(=O)N[C@@H](Cc2ccncc2)C(=O)N2CCC[C@@H]2C(=O)N[C@H]1Cc1ccccc1 [JVA-3629] (cyclo([4Pal][dP]F[dW]))			2740 ± 310 nM	1/86	32 ± 4.1 nM	
CC(C)[C@@H](CN1CC[C@@](C)(c2cccc(O)c2)[C@@H](C)C1)NC(=O)[C@H]1Cc2ccc(O)cc2CN1 [JDTic]						duration of activity after a single dose ([5]; in vivo): weeks in some species
O=C1N[C@H](Cc2c[nH]c3ccccc23)C(=O)N[C@@H](Cc2ccccn2)C(=O)N2CCC[C@@H]2C(=O)N[C@H]1Cc1ccccc1 [JVA-3627] (cyclo([2Pal][dP]F[dW]))			2530 ± 460 nM	1/43	58.4 ± 9.3 nM	
O=C1N[C@H](Cc2c[nH]c3ccccc23)C(=O)N[C@@H](Cc2ccccc2)C(=O)N2CCC[C@@H]2C(=O)N[C@H]1Cc1ccncc1 [JVA-3625] (cyclo(F[dP][4Pal][dW]))			371 ± 81 nM	1/12	30.7 ± 6.8 nM	
[D-His^4]CJ-15,208 [JVA-3670]	not KOR antagonist	agonist				KOR antagonism ([1]; oral (p.o.) administration): only KOR antagonism
O=C1N[C@H](Cc2c[nH]c3ccccc23)C(=O)N[C@@H](Cc2ccccc2)C(=O)N2CCC[C@@H]2C(=O)N[C@H]1Cc1ccccn1 [JVA-3626] (cyclo(F[dP][2Pal][dW]))			1610 ± 590 nM	1/20	82.3 ± 13.8 nM	
O=C1N[C@H](Cc2c[nH]c3ccccc23)C(=O)N[C@@H](Cc2ccccc2)C(=O)N2CCC[C@@H]2C(=O)N[C@H]1Cc1ccccc1 [JVA-2802, cyclo[Phe′-D-Pro-Phe^3-D-Trp^4]] (cyclo(F[dP]F[dW]))				1/12	21.8 nM	oral dose preventing stress-induced relapse of cocaine-seeking behavior [6]: 60 mg/kg; duration of action ([5]; Ross et al., 2012, Eans et al., 2013): < 18 h; oral dose required to significantly antagonize centrally administered U50,488 [7]: 30 mg/kg
[D-Tyr^4]CJ-15,208 [JVA-3669]	not KOR antagonist	agonist				
O=C1N[C@H](Cc2c[nH]c3ccccc23)C(=O)N[C@@H](Cc2c[nH]cn2)C(=O)N2CCC[C@@H]2C(=O)N[C@H]1Cc1ccccc1 [JVA-3622] (cyclo(H[dP]F[dW]))			2500 ± 510 nM		667 ± 470 nM	
O=C1N[C@H](Cc2c[nH]c3ccccc23)C(=O)N[C@@H](Cc2ccccc2)C(=O)N2CCC[C@@H]2C(=O)N[C@H]1Cc1c[nH]cn1 [JVA-3623] (cyclo(F[dP]H[dW]))			366 ± 98 nM		67.7 ± 9.2 nM	
O=C1N[C@H](Cc2c[nH]c3ccccc23)C(=O)N[C@@H](Cc2cccnc2)C(=O)N2CCC[C@@H]2C(=O)N[C@H]1Cc1ccccc1 [JVA-3628] (cyclo([3Pal][dP]F[dW]))	selective KOR antagonism		988 ± 146 nM	1/24	41.8 ± 16.3 nM	respiration [8]: decreases respiration during the first hour; duration of KOR antagonism of centrally administered U50,488 [1]: 12 to 24 h; selectivity of opioid antagonism (KOR vs. MOR and DOR agonists) [1]: opioid antagonism is selective for KOR; KOR antagonism ([1]; oral (p.o.) administration): antagonizing both peripherally and administered KOR agonist; antagonism of centrally (i.c.v.) administered KOR agonist U50,488 [1]: exhibits kappa opioid receptor (KOR) antagonism of centrally administered KOR agonist activity; locomotion [9]: does not produce hyperlocomotion like morphine, but instead can significantly decrease locomotion during the first hour; oral dose preventing stress-induced relapse of cocaine-seeking behavior [10]: 30 mg/kg
[D-hPhe^4]CJ-15,208 [JVA-3668]	not KOR antagonist	agonist				
O=C1N[C@H](Cc2c[nH]c3ccccc23)C(=O)N[C@@H](Cc2ccccc2)C(=O)N2CCC[C@@H]2C(=O)N[C@H]1Cc1cccnc1 [JVA-3624] (cyclo(F[dP][3Pal][dW]))	not KOR antagonism	exhibits antinociception	191 ± 39 nM	1/23	8.34 ± 1.48 nM	antinociception ED50 ([2]; i.c.v.): 1.13 nmol
[D-2′-Pal^4]CJ-15,208 [JVA-3671]	exhibits KOR antagonist activity	exhibits antinociception				opioid receptor mediating the antinociception ([2]; i.c.v. administration): mediated by delta opioid receptors (DOR)
O=C1N[C@H](Cc2ccccc2)C(=O)N[C@@H](Cc2ccccc2)C(=O)N2CCC[C@@H]2C(=O)N[C@H]1Cc1ccccc1 [JVA-3620] (cyclo(F[dP]F[dF]))	exhibited KOR antagonism		1100 ± 80 nM	1/38	28.9 ± 4.9 nM	respiration [8]: decreases respiration during the first hour; duration of KOR antagonism of centrally administered U50,488 [1]: 6 to 12 h; selectivity of opioid antagonism (KOR vs. MOR and DOR agonists) [1]: selectively antagonized the KOR agonist U50,488, but not the mu opioid receptor agonist morphine or the delta opioid receptor antagonist SNC-80; KOR antagonism ([1]; oral (p.o.) administration): exhibited KOR antagonism; oral dose required to significantly antagonize centrally administered U50,488 ([1]; p.o.): 10 mg/kg; antagonism of centrally (i.c.v.) administered KOR agonist U50,488 [1]: antagonized centrally (i.c.v.) administered KOR agonist; locomotion [9]: does not produce hyperlocomotion like morphine, but instead can significantly decrease locomotion during the first hour; oral dose preventing stress-induced relapse of cocaine-seeking behavior [10]: 30 mg/kg
